Data on 14 molecules can be found in patent US9056110B2, “Substituted pyrimidinone-phenyl-pyrimidinyl compounds” (Confluence Life Sciences, Inc., priority 2011, dated 2015).

In one test the test system is TNFα. The experiment in a line: LPS stimulated TNFα production in human PBMCs (ELISA). The format is cell-based. Conditions: PBMC, LPS 0.1 μg/ml, 18-24 hours, read-out: PBMC Cell, TNFα IC50. On the procedure:
Evaluation of the potency and efficacy of p38 inhibitors to block cytokine production is carried out using the human U937 cell line and purified human PBMCs (peripheral blood mononuclear cells). The U937 human pre-monocytic cell line is obtained from the American Type Culture Collection (Rockville, Md.). These cells are differentiated to a monocytic/macrophage phenotype as described by Burnette (Burnette et al., (2009). SD0006: a potent, selective and orally available inhibitor of p38 kinase, Pharmacology 84(1):42-60). Differentiated U937 cells are seeded into 96-well tissue culture plates (200,000 cells/well) in complete media. After 24 hours, the cells are pretreated for 60 minutes in the presence or absence of compound and then stimulated with LPS (lipopolysaccharide) (0.1 μg/mL) for 4 hours. Culture media are then collected for determination of TNFα or IL-6 levels by ELISA. Human PBMCs are isolated from leukopacks as described by Burnette (Burnette et al., (2009), op. cit.). The cells are seeded into 96-well tissue culture plates (200,000 cells/well) in complete media. After a one hour recovery period at 37° C., 5% CO2, the cells are pretreated for 60 minutes in the presence or absence of compound and then stimulated with LPS (0.1 μg/ml) for 18-24 hours. Culture media are then collected for determination of TNFα and IL1β by ELISA. Cytokine concentrations are extrapolated from recombinant protein standard curves using a four-parameter logistic model and solving for IC50 after iterating to the best least-squares fit. p38 inhibitors will show a dose dependent inhibition of LPS stimulated TNFα, and IL6 in differentiated U937 cells and a dose dependent inhibition of LPS stimulated TNFα, IL6 and IL1b in human PBMCs. As drugs that down-regulate TNFα, IL6 and IL1b are efficacious in a number of autoimmune, autoinflammatory inflammatory, cardiovascular and oncological diseases, it would be expected that p38 drugs that inhibit these cytokines and other enzymes and mediators of disease will be effective drugs. Species compounds of Formula (I), described hereinabove, evaluated in this assay, are expected to provide a therapeutic benefit in the treatment of p38 kinase mediated diseases, including lymphoma and inflammation.

Another test deals with p38α/PRAK (Homo sapiens, UniProt Q16539). The experiment in a line: p38α/PRAK cascade assay (IMAP, Hsp27 peptide phosphorylation). The format is biochemical. To be noted: Hsp27 peptide 1 μM, MgATP 10 μM, 120 minutes, read-out: p38/PRAK IC50. On the procedure: (§1) P38 inhibitory potency and P38/MK2 substrate selectivity: The novel, MK2 substrate-selective inhibitory mechanism of compounds is evaluated in enzyme assays that compare inhibitor potency in blocking p38/MK2 versus p38/PRAK induced phosphorylation of an HSP-27 derived peptide substrate. The ability of compounds to inhibit activated phospho-p38α is evaluated using a p38α/MK2 and a p38α/PRAK cascade assay format. The kinase activity of p38α is determined by its ability to phosphorylate and activate GST-MK2 or GST-PRAK. The kinase activity of activated MK2 and PRAK is followed by measuring the phosphorylation of a fluorescently-labeled, peptide substrate based on the sequence of Hsp27 (FITC-KKKALSRQLSVAA). The phosphorylation of the Hsp27 peptide is quantified using IMAP assay technology (Molecular Devices) and the Analyst HT plate reader (LJL Biosystems). Kinase reactions are carried out in a 384-well plate (Corning 3575) in 20 mM HEPES pH 7.5, 10 mM MgCl2, 0.0005% Tween-20, 0.01% BSA, 1 mM DTT, and 2% DMSO. The inhibitor concentration varies between 0.5-30,000 nM, while the Hsp27 peptide substrate and MgATP are held constant at 1 μM and 10 μM, respectively. Activated p38α is added to a final concentration of 20 pM for reactions with 1 nM nonphosphorylated 1 nM GST-MK2. For the p38α/PRAK cascade, unactivated GST-PRAK is held constant at 10 nM while p38α is added to a final concentration of […]. Kinase reactions are incubated at room temperature and quenched after 120 minutes by the addition of 1× Progressive Binding Buffer A containing 1×IMAP beads (IMAP FP Progressive Screening Express Kit, Molecular Devices Catalog Number R8127). Inhibitor potency is calculated by fitting dose-response data to the 4-parameter logistical IC50 equation. The substrate selectivity is calculated as a ratio of p38α/PRAK:p38α/MK2 IC50 values. A substrate selective inhibitor will have a p38α/PRAK:p38α/MK2 IC50 ratio of >2 while a classical p38 inhibitor will have a ratio of between 0.5-2. […] By way of example, the enhanced therapeutic benefit could be associated with a reduction in inhibition of p38 mediated anti-inflammatory functions, such as IL-10 production and TAB1 phosphorylation. An increased safety profile is expected based, for example, on a reduced inhibition of p38 substrates, such as PPARg and CDC25 phosphatase and PLA2 involved in gluconeogenesis and cell cycle regulation, respectively.
Chain of p38α/PRAK (Q16539 whole entry): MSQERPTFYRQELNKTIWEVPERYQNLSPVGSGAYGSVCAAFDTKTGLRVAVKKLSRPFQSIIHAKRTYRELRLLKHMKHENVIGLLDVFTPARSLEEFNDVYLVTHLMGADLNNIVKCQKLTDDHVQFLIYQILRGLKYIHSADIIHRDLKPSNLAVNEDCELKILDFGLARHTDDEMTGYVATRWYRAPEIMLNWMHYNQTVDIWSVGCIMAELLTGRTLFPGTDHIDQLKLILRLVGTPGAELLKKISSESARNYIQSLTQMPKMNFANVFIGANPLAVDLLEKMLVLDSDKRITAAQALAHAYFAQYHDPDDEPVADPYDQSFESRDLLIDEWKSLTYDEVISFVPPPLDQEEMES

In a further test the target is p38α/MK2 (Homo sapiens, UniProt Q16539). The test can be described thus: p38α/MK2 cascade assay (IMAP, Hsp27 peptide phosphorylation). The class given is biochemical. To be noted: for IC50: p38α/MK2 cascade, Hsp27 peptide 1 μM, MgATP 10 μM, 120 minutes, read-out: p38/MK2 IC50; for Selectivity Ratio: ratio of p38α/PRAK:p38α/MK2 IC50 values. On the procedure: as §1
Chain of p38α/MK2 (Q16539 whole entry): as above
Chain of p38α/MK2 (P49137 whole entry partner): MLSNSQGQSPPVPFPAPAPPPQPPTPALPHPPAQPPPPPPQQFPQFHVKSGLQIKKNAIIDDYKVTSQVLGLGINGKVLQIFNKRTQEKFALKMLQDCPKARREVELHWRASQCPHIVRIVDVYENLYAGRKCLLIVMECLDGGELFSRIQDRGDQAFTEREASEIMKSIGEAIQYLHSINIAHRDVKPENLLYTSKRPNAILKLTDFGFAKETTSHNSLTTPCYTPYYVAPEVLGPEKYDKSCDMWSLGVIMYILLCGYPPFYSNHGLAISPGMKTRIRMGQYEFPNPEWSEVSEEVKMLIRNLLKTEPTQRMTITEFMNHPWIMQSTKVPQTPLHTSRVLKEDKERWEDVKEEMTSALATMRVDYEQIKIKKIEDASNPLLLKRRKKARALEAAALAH

The structures appear in SMILES notation.

For the molecule `Cc1ccc(-c2ccnc(C(C)(C)O)n2)cc1-n1c(C)nc(OCc2ccc(F)cc2F)c(Cl)c1=O` [Example 2, 5-chloro-6-(2,4-difluoro-benzyloxy)-3-{5-[2-(1-hydroxy-1-methyl-ethyl)-pyrimidin-4-yl]-2-methyl-phenyl}-2-methyl-3H-pyrimidin-4-one], the IC50 came out at 9.8 nM in the test with TNFα, 83 nM at p38α/PRAK and 15 nM at p38α/MK2. Moreover, the “Selectivity Ratio” value at p38α/MK2 is 5.5.

For `Cc1ccc(-c2ccnc(C(C)(C)O)n2)cc1-n1c(C)nc(OCc2ncc(F)cc2F)c(Cl)c1=O` (racemic) [Example 19, 5-chloro-6-((3,5-difluoropyridin-2-yl)methoxy)-3-(5-(2-(2-hydroxypropan-2-yl)pyrimidin-4-yl)-2-methylphenyl)-2-methylpyrimidin-4(3H)-one], the IC50 came out at 104 nM with TNFα, 566 nM at p38α/PRAK and 40 nM on p38α/MK2. Further, the “Selectivity Ratio” value on p38α/MK2 turned out to be 14.1.

Turning to `Cc1nc(COc2nc(C)n(-c3cc(-c4ccnc(C(C)(C)O)n4)ccc3C)c(=O)c2Cl)co1` (racemic) [Example 8, 5-chloro-3-(5-(2-(2-hydroxypropan-2-yl)pyrimidin-4-yl)-2-methylphenyl)-2-methyl-6-((2-methyloxazol-4-yl)methoxy)pyrimidin-4(3H)-one], the IC50 in the test on TNFα is 158 nM; on p38α/PRAK, 2190 nM; at p38α/MK2 it was 121 nM. In addition, the “Selectivity Ratio” value on p38α/MK2 was determined as 18.1.

For the molecule `COc1cccc(COc2nc(C)n(-c3cc(-c4ccnc(C(C)(C)O)n4)ccc3C)c(=O)c2Cl)c1` [Example 7, 5-chloro-3-(5-(2-(2-hydroxypropan-2-yl)pyrimidin-4-yl)-2-methylphenyl)-6-((3-methoxybenzyl)oxy)-2-methylpyrimidin-4(3H)-one], the IC50 was 94 nM with TNFα, 1490 nM on p38α/PRAK and 62 nM on p38α/MK2. The “Selectivity Ratio” value at p38α/MK2 is 24.

In the case of `Cc1nc(COc2nc(C)n(-c3cc(-c4ccnc(C(C)(C)O)n4)ccc3C)c(=O)c2Cl)cs1` [Example 12, 5-chloro-3-(5-(2-(2-hydroxypropan-2-yl)pyrimidin-4-yl)-2-methylphenyl)-2-methyl-6-((2-methylthiazol-4-yl)methoxy)pyrimidin-4(3H)-one], the IC50 amounted to 118 nM with TNFα, 1360 nM at p38α/PRAK and 76 nM at p38α/MK2. For the same molecule, on p38α/MK2, the “Selectivity Ratio” value was determined as 17.9.

For the molecule `Cc1cccc(COc2nc(C)n(-c3cc(-c4ccnc(C(C)(C)O)n4)ccc3C)c(=O)c2Cl)c1` [Example 5, 5-chloro-3-(5-(2-(2-hydroxypropan-2-yl)pyrimidin-4-yl)-2-methylphenyl)-2-methyl-6-((3-methylbenzyl)oxy)pyrimidin-4(3H)-one], the IC50 was 40 nM in the test on TNFα, 582 nM on p38α/PRAK and 39 nM at p38α/MK2. For the same molecule, the “Selectivity Ratio” value on p38α/MK2 amounted to 14.9.

Regarding `Cc1nc(COc2nc(C)n(-c3cc(-c4ccnc(C(C)(C)O)n4)ccc3C)c(=O)c2Br)cs1` [Example 11, 5-bromo-3-(5-(2-(2-hydroxypropan-2-yl)pyrimidin-4-yl)-2-methylphenyl)-2-methyl-6-((2-methylthiazol-4-yl)methoxy)pyrimidin-4(3H)-one], the figures for the IC50 in the test on TNFα, on p38α/PRAK and at p38α/MK2 were 126 nM, 675 nM and 62 nM, respectively. Further, at p38α/MK2, the “Selectivity Ratio” value is given as 10.9.

On to `Cc1ccc(-c2ccnc(C(C)(C)O)n2)cc1-n1c(C)nc(OCc2ncc(F)cc2F)c(Cl)c1=O` [Example 21, (−)-5-chloro-6-((3,5-difluoropyridin-2-yl)methoxy)-3-(5-(2-(2-hydroxypropan-2-yl)pyrimidin-4-yl)-2-methylphenyl)-2-methylpyrimidin-4(3H)-one], for which the results for the IC50 in the test with TNFα, on p38α/PRAK and at p38α/MK2 were 96 nM, 252 nM and 33 nM, respectively. Also, on p38α/MK2, the “Selectivity Ratio” value is reported as 7.63.

`Cc1cccc(COc2nc(C)n(-c3cc(-c4ccnc(C(C)(C)O)n4)ccc3C)c(=O)c2Br)n1` [Example 13, 5-bromo-3-(5-(2-(2-hydroxypropan-2-yl)pyrimidin-4-yl)-2-methylphenyl)-2-methyl-6-((6-methylpyridin-2-yl)methoxy)pyrimidin-4(3H)-one]: the IC50 in the test with TNFα is 140 nM; at p38α/PRAK, 1280 nM; at p38α/MK2, 83 nM. The “Selectivity Ratio” value on p38α/MK2 is recorded as 15.4.

`Cc1ccc(-c2ccnc(C(C)(C)O)n2)cc1-n1c(C)nc(OCc2cccc(F)n2)c(Cl)c1=O` [Example 18, 5-chloro-6-((6-fluoropyridin-2-yl)methoxy)-3-(5-(2-(2-hydroxypropan-2-yl)pyrimidin-4-yl)-2-methylphenyl)-2-methylpyrimidin-4(3H)-one]: the results for the IC50 with TNFα, at p38α/PRAK and at p38α/MK2 were 624 nM, 7690 nM and 579 nM, respectively. Besides, at p38α/MK2, the “Selectivity Ratio” value is reported as 13.3.

As to `Cc1ccc(-c2ccnc(C(C)(C)O)n2)cc1-n1c(C)nc(OCc2ccc(F)cc2F)c(Br)c1=O` [Example 1, 5-bromo-6-((2,4-difluorobenzyl)oxy)-3-(5-(2-(2-hydroxypropan-2-yl)pyrimidin-4-yl)-2-methylphenyl)-2-methylpyrimidin-4(3H)-one], the values for the IC50 in the test on TNFα, on p38α/PRAK and on p38α/MK2 were 12 nM, 76 nM and 15 nM, respectively. The “Selectivity Ratio” value on p38α/MK2 is 5.1.

Consider `COc1cccc(COc2nc(C)n(-c3cc(-c4ccnc(C(C)(C)C)n4)ccc3C)c(=O)c2Cl)c1` [Example 6, 3-[5-(2-tert-butyl-pyrimidin-4-yl)-2-methyl-phenyl]-5-chloro-6-(3-methoxy-benzyloxy) -2-methyl-3H-pyrimidin-4-one], for which the results for the IC50 with TNFα, at p38α/PRAK and at p38α/MK2 were 270 nM, 11600 nM and 1900 nM, respectively. Further, the “Selectivity Ratio” value on p38α/MK2 amounted to 6.1.

For the molecule `Cc1cccc(COc2nc(C)n(-c3cc(-c4ccnc(C(C)(C)O)n4)ccc3C)c(=O)c2Cl)n1` [Example 15, (−)-5-chloro-3-(5-(2-(2-hydroxypropan-2-yl)pyrimidin-4-yl)-2-methylphenyl)-2-methyl-6-((6-methylpyridin-2-yl)methoxy)pyrimidin-4(3H)-one], the figures for the IC50 in the test with TNFα, at p38α/PRAK and on p38α/MK2 were 70 nM, 1230 nM and 52 nM, respectively. For the same molecule, the “Selectivity Ratio” value at p38α/MK2 amounted to 23.6.

With `Cc1ccc(-c2ccnc(C(C)(C)O)n2)cc1-n1c(C)nc(OCc2cccc(C(F)(F)F)n2)c(Cl)c1=O` [Example 17, 5-chloro-3-(5-(2-(2-hydroxypropan-2-yl)pyrimidin-4-yl)-2-methylphenyl)-2-methyl-6-((6-(trifluoromethyl)pyridin-2-yl)methoxy)pyrimidin-4(3H)-one], the results for the IC50 in the test on TNFα, on p38α/PRAK and at p38α/MK2 were 3750 nM, > 30000 nM and 1700 nM, respectively. Further, the “Selectivity Ratio” value at p38α/MK2 is on record as >17.6.
